Results from patent publication US20130072470A1 (ABBVIE INC., priority 2011, published 2013).

Biological target: T1, Jak3 enzyme (aa 811-1103) (Homo sapiens, UniProt P52333)
T1 construct: Jak3 enzyme (aa 811-1103); expressed in SF9 cells as a GST fusion; GST; made in house; host or cells: SF9 insect cells
Experiment: In vitro Jak3 kinase activity measured by time-resolved fluorescence resonance energy transfer (trFRET)
Format: biochemical
Settings: ATP 0.001 mM
Method: In Vitro Jak3 Kinase Activity Measured by Time-Resolved Fluorescence Resonance Energy Transfer (trFRET)
Varying concentrations of inhibitor were added to an assay well containing: Jak3 enzyme (aa 811-1103; expressed in SF9 cells as a GST fusion and purified by glutathione affinity chromatography; 3 nM), peptide substrate (biotin-TYR2, Sequence: Biotin-(Ahx)-AEEEYFFLFA-amide; 2 μM), MOPSO pH 6.5 (50 mM), MgCl2 (10 mM), MnCl2 (2 mM), DTT (2.5 mM), BSA (0.01% w/v), Na3VO4 (0.1 mM) and ATP (0.001 mM). After about 60 min incubation at rt, the reaction was quenched by addition of EDTA (final concentration: 100 mM) and developed by addition of revelation reagents (final approximate concentrations: 30 mM HEPES pH 7.0, 0.06% BSA, 0.006% Tween-20, 0.24 M KF, 80 ng/mL PT66K (europium labeled anti-phosphotyrosine antibody cat #61T66KLB Cisbio, Bedford, Mass.) and 0.8 μg/mL SAXL (Phycolink streptavidin-allophycocyanin acceptor, cat #PJ52S, Prozyme, San Leandro, Calif.). The developed reaction was incubated in the dark either at about 4° C., for about 14 h or for about 60 min at rt, then read via a time-resolved fluorescence detector (Rubystar, BMG) using a 337 nm laser for excitation and emission wavelength of 665 nm. Within the linear range of the assay, the observed signal at 665 nm is directly related to phosphorylated product and used to calculate the IC50 values.

T1 sequence (P52333 811-1103): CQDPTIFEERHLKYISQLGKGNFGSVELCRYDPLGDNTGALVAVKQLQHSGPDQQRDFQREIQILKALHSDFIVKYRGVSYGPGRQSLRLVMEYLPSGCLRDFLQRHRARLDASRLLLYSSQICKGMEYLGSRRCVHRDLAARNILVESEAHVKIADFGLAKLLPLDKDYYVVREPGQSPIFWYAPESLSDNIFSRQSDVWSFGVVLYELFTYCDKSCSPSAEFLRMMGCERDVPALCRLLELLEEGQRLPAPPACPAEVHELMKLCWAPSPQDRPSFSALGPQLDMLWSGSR

Molecule	IC50	IC50 (Table B)
C[C@@H]1C[C@@H](CCC#N)C[C@@H]1c1nnc2cnc3[nH]ccc3n12 [Example #10, 3-((1R,3R,4S)-3-methyl-4-(6H-pyrrolo[2,3-e][1,2,4]triazolo[4,3-a]pyrazin-1-yl)cyclopentyl)propanenitrile]	1 to 10 µM	
CC[C@@H]1C[C@H](NC(=O)c2coc3ccccc23)C[C@@H]1c1nnc2cnc3[nH]ccc3n12 [compound 32, N-((1S,3R,4S)-3-ethyl-4-(6H-pyrrolo[2,3-e][1,2,4]triazolo[4,3-a]pyrazin-1-yl)cyclopentyl)benzofuran-3-carboxamide]		1 to 10 µM
CC[C@@H]1C[C@H](NC(=O)Cc2coc3ccccc23)C[C@@H]1c1nnc2cnc3[nH]ccc3n12 [compound 41, 2-(benzofuran-3-yl)-N-((1S,3R,4S)-3-ethyl-4-(6H-pyrrolo[2,3-e][1,2,4]triazolo[4,3-a]pyrazin-1-yl)cyclopentyl)acetamide]		1 to 10 µM
CC[C@@H]1CN(C(=O)NCC(C)(F)F)C[C@@H]1c1cnc2cnc3[nH]ccc3n12 [Example #16, (3S,4R)—N-(2,2-difluoropropyl)-3-ethyl-4-(3H-imidazo[1,2-a]pyrrolo[2,3-e]pyrazin-8-yl)pyrrolidine-1-carboxamide]	> 10 µM	
C[C@@H]1C[C@H](N(C)C(=O)c2cocn2)C[C@@H]1c1cnc2cnc3[nH]ccc3n12 [Example #3, N-((1S,3S,4R)-3-(3H-imidazo[1,2-a]pyrrolo[2,3-e]pyrazin-8-yl)-4-methylcyclopentyl)-N-methyloxazole-4-carboxamide]	1 to 10 µM	
CC[C@@H]1C[C@H](NC(=O)c2ncoc2C2CC2)C[C@@H]1c1nnc2cnc3[nH]ccc3n12 [compound 47, 5-cyclopropyl-N-((1S,3R,4S)-3-ethyl-4-(6H-pyrrolo[2,3-e][1,2,4]triazolo[4,3-a]pyrazin-1-yl)cyclopentyl)oxazole-4-carboxamide]		> 10 µM
CC[C@@H]1C[C@H](CCC#N)C[C@@H]1c1nnc2cnc3[nH]ccc3n12 [Example #22, 3-((1S,3R,4S)-3-ethyl-4-(6H-pyrrolo[2,3-e][1,2,4]triazolo[4,3-a]pyrazin-1-yl)cyclopentyl)propanenitrile]	1 to 10 µM	
CC[C@@H]1C[C@H](NC(=O)CCC2CC2)C[C@@H]1c1nnc2cnc3[nH]ccc3n12 [compound 45, 3-cyclopropyl-N-((1S,3R,4S)-3-ethyl-4-(6H-pyrrolo[2,3-e][1,2,4]triazolo[4,3-a]pyrazin-1-yl)cyclopentyl)propanamide]		1 to 10 µM
CC[C@@H]1C[C@H](NC(=O)CCC2(C)CC2)C[C@@H]1c1nnc2cnc3[nH]ccc3n12 [compound 44, N-((1S,3R,4S)-3-ethyl-4-(6H-pyrrolo[2,3-e][1,2,4]triazolo[4,3-a]pyrazin-1-yl)cyclopentyl)-3-(1-methylcyclopropyl)propanamide]		1 to 10 µM
CC[C@@H]1C[C@H](NC(=O)C2=NN=C(c3ccco3)C2)C[C@@H]1c1nnc2cnc3[nH]ccc3n12 [compound 39, N-((1S,3R,4S)-3-ethyl-4-(6H-pyrrolo[2,3-e][1,2,4]triazolo[4,3-a]pyrazin-1-yl)cyclopentyl)-5-(furan-2-yl)-4H-pyrazole-3-carboxamide]		< 1 µM
CC[C@@H]1CN(C(=O)NCCF)C[C@@H]1c1cnc2cnc3[nH]ccc3n12 [Example #13, (3S,4R)-3-ethyl-N-(2-fluoroethyl)-4-(3H-imidazo[1,2-a]pyrrolo[2,3-e]pyrazin-8-yl)pyrrolidine-1-carboxamide]	1 to 10 µM	
C[C@@H]1CN(C(=O)NCC(F)(F)F)C[C@@H]1c1cnc2cnc3[nH]ccc3n12 [Example #18, (3S,4R)-3-methyl-4-(3H-imidazo[1,2-a]pyrrolo[2,3-e]pyrazin-8-yl)-N-(2,2,2-trifluoroethyl)pyrrolidine-1-carboxamide]	> 10 µM	
CC[C@@H]1C[C@H](NC(=O)COc2cc(C)on2)C[C@@H]1c1nnc2cnc3[nH]ccc3n12 [compound 26, N-((1S,3R,4S)-3-ethyl-4-(6H-pyrrolo[2,3-e][1,2,4]triazolo[4,3-a]pyrazin-1-yl)cyclopentyl)-2-(5-methylisoxazol-3-yloxy)acetamide]		> 10 µM
C[C@@H]1C[C@H](CCC#N)C[C@@H]1c1nnc2cnc3[nH]ccc3n12 [Example #9, 3-((1S,3R,4S)-3-methyl-4-(6H-pyrrolo[2,3-e][1,2,4]triazolo[4,3-a]pyrazin-1-yl)cyclopentyl)propanenitrile]	> 10 µM	
CC[C@@H]1CN(C(=O)CCC(F)(F)F)C[C@@H]1c1cnc2cnc3[nH]ccc3n12 [Example #15, 1-((3S,4R)-3-ethyl-4-(3H-imidazo[1,2-a]pyrrolo[2,3-e]pyrazin-8-yl)pyrrolidin-1-yl)-4,4,4-trifluorobutan-1-one]	1 to 10 µM	
1-((1R,3S,4R)-3-(3H-imidazo[1,2-a]pyrrolo[2,3-e]pyrazin-8-yl)-4-methylcyclopentyl)methyl)azetidine-3-carbonitrile and 1-(((1S,3S,4R)-3-(3H-imidazo[1,2-a]pyrrolo[2,3-e]pyrazin-8-yl)-4-methylcyclopentyl)methyl)azetidine-3-carbonitrile [Example #7]	> 10 µM	

The remaining lines, values ahead:

IC50	IC50 (Table B)	Molecule
	1 to 10 µM	CC[C@@H]1C[C@H](NC(=O)c2cnoc2C2CC2)C[C@@H]1c1nnc2cnc3[nH]ccc3n12 [compound 66, 5-cyclopropyl-N-((1S,3R,4S)-3-ethyl-4-(6H-pyrrolo[2,3-e][1,2,4]triazolo[4,3-a]pyrazin-1-yl)cyclopentyl)isoxazole-4-carboxamide]
	> 10 µM	CC[C@@H]1C[C@H](NC(=O)CCC2CCCCC2=O)C[C@@H]1c1nnc2cnc3[nH]ccc3n12 (stereo partly drawn) [compound 70, N-((1S,3R,4S)-3-ethyl-4-(6H-pyrrolo[2,3-e][1,2,4]triazolo[4,3-a]pyrazin-1-yl)cyclopentyl)-3-(2-oxocyclohexyl)propanamide]
	1 to 10 µM	CCc1ocnc1C(=O)N[C@H]1C[C@@H](CC)[C@@H](c2nnc3cnc4[nH]ccc4n23)C1 [compound 74, 5-ethyl-N-((1S,3R,4S)-3-ethyl-4-(6H-pyrrolo[2,3-e][1,2,4]triazolo[4,3-a]pyrazin-1-yl)cyclopentyl)oxazole-4-carboxamide]
	1 to 10 µM	CC[C@@H]1C[C@H](NC(=O)c2cc3ccccc3o2)C[C@@H]1c1nnc2cnc3[nH]ccc3n12 [compound 57, N-((1S,3R,4S)-3-ethyl-4-(6H-pyrrolo[2,3-e][1,2,4]triazolo[4,3-a]pyrazin-1-yl)cyclopentyl)benzofuran-2-carboxamide]
	1 to 10 µM	CC[C@@H]1C[C@H](NC(=O)CCC2CCCCC2)C[C@@H]1c1nnc2cnc3[nH]ccc3n12 [compound 77, 3-cyclohexyl-N-((1S,3R,4S)-3-ethyl-4-(6H-pyrrolo[2,3-e][1,2,4]triazolo[4,3-a]pyrazin-1-yl)cyclopentyl)propanamide]
	1 to 10 µM	CC[C@@H]1C[C@H](NC(=O)c2cc(C)no2)C[C@@H]1c1nnc2cnc3[nH]ccc3n12 [compound 62, N-((1S,3R,4S)-3-ethyl-4-(6H-pyrrolo[2,3-e][1,2,4]triazolo[4,3-a]pyrazin-1-yl)cyclopentyl)-3-methylisoxazole-5-carboxamide]
	< 1 µM	CC[C@@H]1C[C@H](NC(=O)c2cc(-c3ccco3)on2)C[C@@H]1c1nnc2cnc3[nH]ccc3n12 [compound 73, N-((1S,3R,4S)-3-ethyl-4-(6H-pyrrolo[2,3-e][1,2,4]triazolo[4,3-a]pyrazin-1-yl)cyclopentyl)-5-(furan-2-yl)isoxazole-3-carboxamide]
	1 to 10 µM	CC[C@@H]1C[C@H](NC(=O)c2ccc(CSC)o2)C[C@@H]1c1nnc2cnc3[nH]ccc3n12 [compound 64, N-((1S,3R,4S)-3-ethyl-4-(6H-pyrrolo[2,3-e][1,2,4]triazolo[4,3-a]pyrazin-1-yl)cyclopentyl)-5-(methylthiomethyl)furan-2-carboxamide]
	1 to 10 µM	CCc1cc(C(=O)N[C@H]2C[C@@H](CC)[C@@H](c3nnc4cnc5[nH]ccc5n34)C2)no1 [compound 76, 5-ethyl-N-((1S,3R,4S)-3-ethyl-4-(6H-pyrrolo[2,3-e][1,2,4]triazolo[4,3-a]pyrazin-1-yl)cyclopentyl)isoxazole-3-carboxamide]
	< 1 µM	CC[C@@H]1C[C@H](NC(=O)c2noc3ccccc23)C[C@@H]1c1nnc2cnc3[nH]ccc3n12 [compound 68, N-((1S,3R,4S)-3-ethyl-4-(6H-pyrrolo[2,3-e][1,2,4]triazolo[4,3-a]pyrazin-1-yl)cyclopentyl)benzo[d]isoxazole-3-carboxamide]
	1 to 10 µM	CC[C@@H]1C[C@H](NC(=O)/C=C/c2ccco2)C[C@@H]1c1nnc2cnc3[nH]ccc3n12 [compound 60, (E)-N-((1S,3R,4S)-3-ethyl-4-(6H-pyrrolo[2,3-e][1,2,4]triazolo[4,3-a]pyrazin-1-yl)cyclopentyl)-3-(furan-2-yl)acrylamide]
	1 to 10 µM	CC[C@@H]1C[C@H](NC(=O)CCC2CCC(=O)N2)C[C@@H]1c1nnc2cnc3[nH]ccc3n12 (stereo partly drawn) [compound 80, N-((1S,3R,4S)-3-ethyl-4-(6H-pyrrolo[2,3-e][1,2,4]triazolo[4,3-a]pyrazin-1-yl)cyclopentyl)-3-(5-oxopyrrolidin-2-yl)propanamide]
